Where “and” joins values, the source holds several entries; their conditions need not be identical. Equal values may be shown once.
Key:
[1] = Rat feeding study: toxicity control (LDH, AST, ALT, Alkaline Phosphatase, creatinine in plasma and serum); settings: rats, in feed
Description: (§1) Male, albino, Sprague-Dawley rats (n=100) weighing 150-175 g were placed in quarantine for 1 week and then housed in individual cages. To determine food consumption, rat chow in containers was weighed at the beginning and end of the day to determine the weight of the food consumed by each animal. The containers were modified to prevent spillage. Rats were provided with water ad libitum. The chow was composed of rolled oats, sugar and peanut oil (92:4:4) (w:w:w) plus a standard vitamin/mineral mix.
(§2) Administration of anticoagulant was accomplished by uniformly dispersing the compound in the peanut oil used in the chow. […] […] Actual concentration of the drug to be applied will be based on the average food consumption determined for the rats.
(§3) Groups of rats were established as follows for each UWEC-K compound:
(§4) • A. Diet (Negative) controls: no anticoagulant additive to food • B. Positive controls: food treated with warfarin at LD50 concentration for a rat weighing 180 g • C. Control to evaluate potentiation or diminution of warfarin effect. […] The groups will be repeated for each of the two compounds. Four animals in each group were anaesthetized at 96 hours, and exsanguinated by cardiac puncture. Prior to exsanguination each animal was anesthetized by the intraperitoneal injection of 50 mg/kg of sodium pentothal. Blood was collected in 3.2% citrate in pediatric tubes and tested for prothrombin time and active coagulation factors VII and X. Factor V will also be tested as a marker of potential hepatic toxicity. […] Animals were monitored twice daily and any animals found in apparent distress with be immediately sacrificed as above.

[2] = tested on: clotting factor X; test: Rat feeding study: level of active coagulation factor X; format: in vivo, Sprague-Dawley rats; settings: rats; for X %: in feed
Description: as §1, §2, §3, §4

[3] = tested on: blood clotting; test: Rat feeding study: overall effect on blood clotting and on the anticoagulant activity of warfarin; format: in vivo, Sprague-Dawley rats; settings: rats; for effect on blood clotting time and levels of clotting factors, compound alone (in words): without warfarin, all three doses; for effect on the activity of warfarin (in words): 10 days of co-administration with warfarin
Description: The containers were modified to prevent spillage. Rats were provided with water ad libitum.
Thus diets were constructed at 0.1 mpk/d. 1 mpk/d and 10 mpk/d.
Control to evaluate potentiation or diminution of warfarin effect.

[4] = tested on: clotting factor VII; test: Rat feeding study: level of active coagulation factor VII; format: in vivo, Sprague-Dawley rats; settings: rats; for VII %: in feed
Description: as §1, §2, §3, §4

[5] = tested on: blood clotting; test: Rat feeding study: prothrombin time; format: in vivo, Sprague-Dawley rats; set-up: Pro Time: unit not given beside the values; settings: rats; for Pro Time: in feed
Description: as §1, §2, §3, §4

[6] = tested on: blood clotting; settings: 0.25 mg/kg, rats of approximately 200 gm BW; cited from earlier work
[7] = tested on: rat; settings: for 5 days; cited from earlier work
[8] = 10 days, co-administered with warfarin

CC(=O)Oc1c2c(c(OC(C)=O)c3ccccc13)[C@@H]1C[C@H]2C2OC21 (stereo partly drawn) [UWEC-K2]
ALT ([1]; 4 days, 0.025 mpk): 40.25
AST ([1]; 4 days, 0.025 mpk): 104.75
Alk Phos ([1]; 4 days, 0.025 mpk): 213.50
Creat. ([1]; 4 days, 0.025 mpk): 0.10
LDH ([1]; 4 days, 0.025 mpk): 758.75
ALT ([1]; 4 days, 0.25 mpk): 45.00
AST ([1]; 4 days, 0.25 mpk): 135.33
Alk Phos ([1]; 4 days, 0.25 mpk): 240.33
Creat. ([1]; 4 days, 0.25 mpk): 0.10
LDH ([1]; 4 days, 0.25 mpk): 1496.33
ALT ([1]; 4 days, 2.5 mpk): 35.50
AST ([1]; 4 days, 2.5 mpk): 114.75
Alk Phos ([1]; 4 days, 2.5 mpk): 217.25
Creat. ([1]; 4 days, 2.5 mpk): 0.10
LDH ([1]; 4 days, 2.5 mpk): 1026.50
ALT ([1]; 10 days, 0.025 mpk): 48.17
AST ([1]; 10 days, 0.025 mpk): 132.33
Alk Phos ([1]; 10 days, 0.025 mpk): 241.67
Creat. ([1]; 10 days, 0.025 mpk): 0.10
LDH ([1]; 10 days, 0.025 mpk): 1552.33
ALT ([1]; 10 days, 0.25 mpk): 47.50
AST ([1]; 10 days, 0.25 mpk): 118.67
Alk Phos ([1]; 10 days, 0.25 mpk): 274.17
Creat. ([1]; 10 days, 0.25 mpk): 0.12
LDH ([1]; 10 days, 0.25 mpk): 1445.50
ALT ([1]; 10 days, 2.5 mpk): 48.50
AST ([1]; 10 days, 2.5 mpk): 110.67
Alk Phos ([1]; 10 days, 2.5 mpk): 264.17
Creat. ([1]; 10 days, 2.5 mpk): 0.15
LDH ([1]; 10 days, 2.5 mpk): 1234.50
levels of Factor X reduced by a factor compared to control [2, 8]: ~20
levels of Factor X reduced by a factor relative to warfarin alone [2, 8]: 4
X % ([2]; 4 days, 0.025 mpk): 73.25%
X % ([2]; 4 days, 0.25 mpk): 61.00%
X % ([2]; 4 days, 2.5 mpk): 61.00%
X % ([2]; 10 days, 0.025 mpk): 64.17%
X % ([2]; 10 days, 0.25 mpk): 59.83%
X % ([2]; 10 days, 2.5 mpk, 2.5 mg/kg): 63.33% and 61.00%
effect on blood clotting time and levels of clotting factors, compound alone (in words) ([3]; 4 days): do not differ significantly from control
effect on the activity of warfarin (in words) [3]: significantly enhance the effect of warfarin
effect on blood clotting time and levels of clotting factors, compound alone (in words) ([3]; 10 days): do not differ significantly from control
levels of Factor VII reduced by a factor compared to control [4, 8]: ~20
levels of Factor VII reduced by a factor relative to warfarin alone [4, 8]: 3
VII % ([4]; 4 days, 0.025 mpk): 366.25%
VII % ([4]; 4 days, 0.25 mpk): 334.33%
VII % ([4]; 4 days, 2.5 mpk): 395.50%
VII % ([4]; 10 days, 0.025 mpk): 350.17%
VII % ([4]; 10 days, 0.25 mpk): 295.17%
VII % ([4]; 10 days, 2.5 mpk, 2.5 mg/kg): 325.33% and 286.83%
prothrombin clotting time increase compared to control [5, 8]: almost an order of magnitude
prothrombin clotting time increased by a factor relative to warfarin alone [5, 8]: over 4
Pro Time ([5]; 4 days, 0.025 mpk): 11.38
Pro Time ([5]; 4 days, 0.25 mpk): 11.63
Pro Time ([5]; 4 days, 2.5 mpk): 12.73
Pro Time ([5]; 10 days, 0.025 mpk): 11.58
Pro Time ([5]; 10 days, 0.25 mpk): 11.55
Pro Time ([5]; 10 days, 2.5 mpk, 2.5 mg/kg): 11.57 and 11.63

CC(=O)CC(c1ccccc1)c1c(O)c2ccccc2oc1=O (stereo not drawn) [Warfarin, warfarin, reference compound]
ALT ([1]; 4 days, 0.25 mpk): 46.00
AST ([1]; 4 days, 0.25 mpk): 123.25
Alk Phos ([1]; 4 days, 0.25 mpk): 242.30
Creat. ([1]; 4 days, 0.25 mpk): 0.11
LDH ([1]; 4 days, 0.25 mpk): 1168.88
ALT ([1]; 10 days, 0.25 mpk): 48.09
AST ([1]; 10 days, 0.25 mpk): 91.82
Alk Phos ([1]; 10 days, 0.25 mpk): 249.73
Creat. ([1]; 10 days, 0.25 mpk): 0.15
LDH ([1]; 10 days, 0.25 mpk): 626.18
X % ([2]; 4 days, 0.25 mpk): 10.00%
X % ([2]; 10 days, 0.25 mpk): 14.85%
INR maintained [6]: 2.6
VII % ([4]; 4 days, 0.25 mpk): 29.54%
VII % ([4]; 10 days, 0.25 mpk): 56.18%
Pro Time ([5]; 4 days, 0.25 mpk): 36.98
Pro Time ([5]; 10 days, 0.25 mpk): 24.38
LD50 [7]: 1 mg/kg/day

CC(=O)Oc1c2c(c(OC(C)=O)c3ccccc13)[C@H]1C=C[C@@H]2C1 [UWEC-K1]
ALT ([1]; 4 days, 0.025 mpk): 37.67
AST ([1]; 4 days, 0.025 mpk): 121.00
Alk Phos ([1]; 4 days, 0.025 mpk): 170.67
Creat. ([1]; 4 days, 0.025 mpk): 0.15
LDH ([1]; 4 days, 0.025 mpk): 1075.33
ALT ([1]; 4 days, 0.25 mpk): 41.75
AST ([1]; 4 days, 0.25 mpk): 152.75
Alk Phos ([1]; 4 days, 0.25 mpk): 245.75
Creat. ([1]; 4 days, 0.25 mpk): 0.10
LDH ([1]; 4 days, 0.25 mpk): 1168.00
ALT ([1]; 4 days, 2.5 mpk): 39.00
AST ([1]; 4 days, 2.5 mpk): 125.67
Alk Phos ([1]; 4 days, 2.5 mpk): 230.67
Creat. ([1]; 4 days, 2.5 mpk): 0.10
LDH ([1]; 4 days, 2.5 mpk): 1304.67
ALT ([1]; 10 days, 0.025 mpk): 49.33
AST ([1]; 10 days, 0.025 mpk): 134.67
Alk Phos ([1]; 10 days, 0.025 mpk): 252.17
Creat. ([1]; 10 days, 0.025 mpk): 0.13
LDH ([1]; 10 days, 0.025 mpk): 1697.17
ALT ([1]; 10 days, 0.25 mpk): 48.33
AST ([1]; 10 days, 0.25 mpk): 121.33
Alk Phos ([1]; 10 days, 0.25 mpk): 283.50
Creat. ([1]; 10 days, 0.25 mpk): 0.15
LDH ([1]; 10 days, 0.25 mpk): 1330.33
ALT ([1]; 10 days, 2.5 mpk): 49.33
AST ([1]; 10 days, 2.5 mpk): 124.67
Alk Phos ([1]; 10 days, 2.5 mpk): 264.00
Creat. ([1]; 10 days, 2.5 mpk): 0.15
LDH ([1]; 10 days, 2.5 mpk): 1663.83
X % ([2]; 4 days, 0.025 mpk): 74.50%
X % ([2]; 4 days, 0.25 mpk): 65.33%
X % ([2]; 4 days, 2.5 mpk): 64.25%
X % ([2]; 10 days, 0.025 mpk): 68.00%
X % ([2]; 10 days, 0.25 mpk): 61.17%
X % ([2]; 10 days, 2.5 mpk): 61.00%
effect on blood clotting time and levels of clotting factors, compound alone (in words) ([3]; 4 days): do not differ significantly from control
effect on the activity of warfarin (in words) [3]: significantly enhance the effect of warfarin
effect on blood clotting time and levels of clotting factors, compound alone (in words) ([3]; 10 days): do not differ significantly from control
VII % ([4]; 4 days, 0.025 mpk): 346.75%
VII % ([4]; 4 days, 0.25 mpk): 351.33%
VII % ([4]; 4 days, 2.5 mpk): 370.75%
VII % ([4]; 10 days, 0.025 mpk): 364.00%
VII % ([4]; 10 days, 0.25 mpk): 304.67%
VII % ([4]; 10 days, 2.5 mpk): 286.83%
Pro Time ([5]; 4 days, 0.025 mpk): 11.18
Pro Time ([5]; 4 days, 0.25 mpk): 11.60
Pro Time ([5]; 4 days, 2.5 mpk): 11.78
Pro Time ([5]; 10 days, 0.025 mpk): 11.37
Pro Time ([5]; 10 days, 0.25 mpk): 11.72
Pro Time ([5]; 10 days, 2.5 mpk): 11.63
